In patent US20250345343A1, “PHARMACEUTICAL COMPOSITION FOR PREVENTION OR TREATMENT OF SOLID CANCER COMPRISING EPIDITHIODIOXOPIPERAZINE DERIVATIVE OR PHARMACEUTICALLY ACCEPTABLE SALT THEREOF” (priority 2019, published 2025):

Legend:
[1] = test system: MDA-MB-231, Hs-578T, A549, H460, MKN28, MKN74, SK-MEL-5, SK-MEL-28, RKO, HCT116, PC3 and Panc-1 cancer cells; assay: Colony formation assay; format: cell-based; details: for colony formation inhibition: low concentrations (50 nM and 200 nM), 10 days
Method: The cells (2×10^3 cells/well) were cultured in 6-well plates for 24 hours, and then treated with the compounds of the present invention for 2 hours. The cells were placed in fresh complete media and additionally cultured for 10 days. The cells were washed with PBS and stained with crystal violet. Blue-stained colonies were manually counted.
Among the cancer cells prepared according to Experimental Example 1, breast cancer cell lines MDA-MB-231 and Hs-578T; lung cancer cell lines A549 and H460; stomach cancer cell lines MKN28 and MKN74; skin cancer cell lines SK-MEL-5 and SK-MEL-28; colon cancer cell lines RKO and HCT116; a prostate cancer cell line PC3; and a pancreatic cancer cell line Panc-1 were treated with DMSO as a control vehicle and synthetic epidithiodioxopiperazine derivatives A2, A5, and A10.

[2] = test system: various cancer cell lines and three normal cells (MCF-10A, IMR90, and CCD-841); assay: Cell viability assay (Cell Titer-Glo), cancer cells versus normal cells; format: cell-based; details: 50 nM and 200 nM
Text: FIG. 5 is diagrams illustrating the cytotoxic effect of a synthetic epidithiodioxopiperazine derivative on various cancer cells and normal cells. (A) to (J) respectively illustrate the cell viability quantified by the Cell Titer-Glo assay system of breast cancer cells, lung cancer cells, stomach cancer cells, skin cancer cells, colon cancer cells, prostate cancer cells, pancreatic cancer cells, normal breast cells, normal fibroblasts, and normal epithelial cells after treating with the labelled ETP compound for 24 hours (n=3). And IC50 values are determined using a linear regression program (GraphPad Prism) and illustrated in (K).
In order to determine the IC50 value for examining cytotoxicity, the cells (2×10^5 cells/well) were aliquoted into 96-well plates and treated with the labelled compounds at various concentrations for 24 hours. The cell viability was measured using the Cell Titer-Glo Luminescence Assay Reagent Kit (Promega, G7570), and the luminescence was read using an Envision plate reader. The percentage of cell growth with respect to that in the vehicle control group (0.1% DMSO-treated cells) was calculated.

[3] = Cell proliferation assay (WST-1): cytotoxicity and proliferation of breast cancer cells; format: cell-based; details: human; up to a concentration of about 200 nM; breast cancer cells MDA-MB-231 and Hs-578T
Method: (§1) The cells (2×10^3 cells/well) were cultured in 96-well plates for 24 hours, and then treated with the compound of the present invention for 2 hours. The cells were placed in fresh complete media and cultured for the labelled time. For cell proliferation, the cells were treated with WST-1 reagent for 1 hour, and the absorbance of the formazan product at 450 nm was measured using a UV/VIS ELISA reader.
(§2) Among the cancer cells prepared according to Experimental Example 1, breast cancer cell lines MDA-MB-231 and Hs-578T were treated with DMSO as a control vehicle and a natural epidithiodioxopiperazine derivative gliotoxin, the cytotoxicity and proliferation rate at each concentration of the treated compound were calculated according to Experimental Example 2, and the results are illustrated in FIG. 1.

[4] = test system: breast cancer cell lines MDA-MB-231 and Hs-578T; assay: as above; format: cell-based; details: breast cancer cells
Method: as §1, §2

[5] = test system: breast cancer cell lines MDA-MB-231 and Hs-578T; assay: Migration assay (trans-well); format: cell-based; details: 24 hours
Method: The cells (2×10^5 cells/well) were cultured in 6-well plates for 24 hours, and then treated with the compounds of the present invention for 2 hours. After treatment, the cells were serum-starved by further culturing in fresh culture medium containing 0.5% FBS for 12 hours. The serum-starved cells (5×10^4 cells/well) were transferred to the upper chamber (8 μm pore size) of a 24-well trans-well culture plate (Costar) with the bottom layer pre-coated with 0.1% gelatin B (Sigma Aldrich). The lower chamber was filled with culture medium containing 20% FBS. Twenty-four hours after plating, non-migrated cells in the upper chamber were removed. After the cells which had not migrated from the upper chamber were removed, the upper chamber was fixed with methanol and stained with 0.6% hematoxylin (DAKO). The stained cells were photographed and counted. The number of migratory cells was determined by averaging the values from three wells.
Among the cancer cells prepared according to Experimental Example 1, breast cancer cell lines MDA-MB-231 and Hs-578T were treated with DMSO as a control vehicle and natural epidithiodioxopiperazine derivative gliotoxin, cell migration to the FBS-containing medium was observed and the number of migrated cells was counted according to Experimental Example 5, and the results are illustrated in FIGS. 3 and 4.

[6] = test system: breast cancer cell lines MDA-MB-231 and Hs-578T; assay: Cell cycle assay (PI staining, flow cytometry); format: cell-based; details: treated 2 hours, cultured 24 hours
Method: The cells (2×10^5 cells/well) were cultured in 6-well plates for 24 hours, and then treated with the compounds of the present invention for 2 hours. The cells were placed in fresh complete media and further cultured for 24 hours. The cells were fixed overnight in 70% ethanol at 4° C., washed with cold PBS, and re-suspended in PBS solution containing RNase A (10 μg/mL) at 37° C. for 30 minutes. The suspended cells were stained with propidium iodide (PI, 50 μg/mL, Invitrogen) for 5 minutes, and flow cytometry (FACS Calibur, BD) was performed. The cell population was analyzed using ModiFit LT software.
Among the cancer cells prepared according to Experimental Example 1, breast cancer cell lines MDA-MB-231 and Hs-578T were not treated or were treated with a natural epidithiodioxopiperazine derivative gliotoxin, the cell cycle was analyzed and the cell percentage in G1 phase was calculated according to Experimental Example 4, and the results are illustrated in FIG. 2.

[7] = test system: patient-derived lung adenocarcinoma tumor; assay: Patient-derived tumor xenograft experiment; format: in vivo, mice
Method: Animal experiments were approved by the Institutional Animal Care and Use Committee (IACUC) of Seoul National University College of Medicine and complied with ARRIVE (Animal Research: Reporting of In Vivo Experiments) guidelines. Patient-derived lung tumors were subcutaneously implanted into the backs of 4-week-old and 17-week-old NSG (NOD-scid-IL2Rgnull) and humanized NSG (HuNSG) mice, respectively. The compound represented by Chemical Formula 7 (A5, 300 mg/kg) and/or pembrolizumab (humanized anti-PD-1 antibody, 5 mg/kg) dissolved in PBS were intraperitoneally injected to the mice every 3 days for 3 weeks and every 5 days for 3 weeks, respectively. The tumors were allowed to grow for 28 days, excised, and quantified. The tumor volume was measured every 3 days using Vernier calipers and calculated using the following equation.
In the equation, a and b mean the superficial diameter of major axis and the superficial diameter of minor axis, respectively.
While the mouse models prepared by implanting a patient-derived lung adenocarcinoma tumor according to Experimental Example 10 were not treated, were treated only with a representative synthetic epidithiodioxopiperazine derivative A5, or were concurrently treated with A5 and pembrolizumab, a humanized antibody known to be used for cancer immunotherapy, the changes in volume of the tumor were periodically observed, and the results are illustrated in FIG. 15.

In the case of `O=C1N2CCCC23SSC12CCCN2C3=O` [A10, 5a, 10a-dithio-octahydrodipyrrolo[1,2-a:1′,2′-d]pyrazine-5,10-dione], the “colony formation inhibitory effect” value ([1]; 50 nM) is reported as “colony formation was inhibited in most cancer cells”, the colony formation inhibition [1] is reported as “efficiently inhibit colony formation” and the non-specific cytotoxicity [2] is reported as “do not exhibit non-specific cytotoxicity”.
In the case of `CN1C(=O)C2(Cc3cn(C45CC67SSC(CO)(C(=O)N6C4Nc4ccccc45)N(C)C7=O)c4ccccc34)SSC1(CO)C(=O)N2C` (stereo not drawn) [chetomin], the viability at 2 h [3] is reported as no less than 80%, the “proliferation rate compared to DMSO-treated cells” value ([4]; chetomin 50 nM) is reported as “significantly decreased” and the “migration of breast cancer cells induced to the serum-containing medium” value [5] is reported as “significantly decreased”.
For `CN1C(=O)C2SSC1C(=O)N2C` [A2, 5,7-dimethyl-2,3-dithia-5,7-diazabicyclo[2.2.2] octane-6,8-dione], the “colony formation inhibitory effect” value ([1]; 50 nM) was “equal to or somewhat superior to that in the control vehicle-treated group”, the “colony formation inhibitory effect” value ([1]; 200 nM) was “remarkably so as to be observed with the naked eye in all tested cells” and the colony formation inhibition [1] was “efficiently inhibit colony formation”. The non-specific cytotoxicity [2] was “do not exhibit non-specific cytotoxicity”.
In the case of `CN1C(=O)C23CC4=CC=CC(O)C4N2C(=O)C1(CO)SS3` (stereo not drawn) [gliotoxin], the viability [3] is reported as no less than 80%, the “proliferation rate compared to DMSO-treated cells” value ([4]; gliotoxin 100 nM) is reported as “significantly decreased” and the “increase of cell percentage in G1 phase compared to untreated group” value [6] is reported as no less than 10%. For the same compound, the “migration of breast cancer cells induced to the serum-containing medium” value [5] was “significantly decreased”.
With `C=CCN1C(=O)C2SSC1C(=O)N2CC=C` [A5, 5,7-diallyl-2,3-dithia-5,7-diazabicyclo[2.2.2] octane-6,8-dione] the “colony formation inhibitory effect” value ([1]; 50 nM) was “equal to or somewhat superior to that in the control vehicle-treated group”, the “colony formation inhibitory effect” value ([1]; 200 nM) was “remarkably so as to be observed with the naked eye in all tested cells” and the colony formation inhibition [1] was “efficiently inhibit colony formation”. The non-specific cytotoxicity [2] was “do not exhibit non-specific cytotoxicity”, the “tumor volume over time” value ([7]; NSG mice, A5 300 mg/kg intraperitoneally every 3 days for 3 weeks) was “increase in tumor volume is suppressed” and the “tumor size compared to untreated control group” value ([7]; humanized NSG mice (HuNSG), A5 300 mg/kg intraperitoneally every 3 days for 3 weeks) was “an effect of decreasing the tumor size is exerted”. For the same compound, the “inhibiting tumor growth and decreasing tumor size, A5 alone versus pembrolizumab or A5 plus pembrolizumab” value ([7]; humanized NSG mice (HuNSG), pembrolizumab 5 mg/kg every 5 days for 3 weeks) was “superior to the pembrolizumab-treated group or the experimental group concurrently treated with A5 and pembrolizumab”.
